We go through two molecules from patent US20230141783A1, “DIFFERENT FORMS OF 6-CHLORO-2-ETHYL-N-(4-(4-(4-(TRIFLUOROMETHOXY)PHENYL)PIPERIDINE-1-YL)BENZYL)IMIDAZO[1,2-A]PYRIDINE-3-CARBOXAMIDE” (priority 2019, published 2023).

“Also recorded” adds a separate entry of the source. Where two headings read alike, the source gives them in different places.

One data set is described as follows: DVS water absorption. As to conditions: 90% RH at RT; ditosylate. It counts as physicochemical. The text has this:
(FIGS. 4-5). It is the predominant form obtained in slurry experiments. Conversion from Form A to other XRPD patterns was mainly obtained from methanol (to Form C) or water (to pattern B) in the slurry medium. However, as it will be shown in further sections, Form C is converted to Form A upon re-slurry in the majority of other solvents (than methanol).
FIGS. 9 to 11 show XRPD, DSC, and TGA of a solid with Form C. […] The XRPD peaks of pattern C are sharper than those of Form A. Form C is the predominant form when methanol is used as the slurry medium. However, Form “C” is not a methanol solvate form of the di-tosylate salt. Many reactive crystallization experiments using different solvents generated Form C immediately after salt formation.

A short description of data set [1]: Exposing Forms A and C in 100% RH at RT (XRPD/DSC). It counts as physicochemical. As to conditions: 100% RH at RT for 6 days, ditosylate. The source says: Forms A and C were exposed in 100% RH environment at RT for 6 days; the solids were subsequently analyzed using DSC and XRPD.
In FIGS. 1 and 17, the XRPD of sample of Form A (previous obtained form EA and IPA/MEK) before and after 6 days exposure to 100% RH are sketched. FIGS. 19 and 20 show the DSC scan of the same samples after exposure. […] FIGS. 18 and 21 show the result of the same treatment for Form C.

A short description of data set [2]: Forms A and C re-slurry in pure solvents at RT (aging experiments, XRPD). It counts as physicochemical. As to conditions: re-slurry of Forms A and C at RT; except in methanol. Here is the method: These experiments were performed to investigate potential transformation between Form A and C. The procedure of the experiments is shown below. • 15 mg Form A and 15 mg Form C were add into a 1.5 ml vial with magnetic stirrer. • 20 vol (600 ul) of various solvents was added into the vial • The suspensions were stir at RT for 5 days • Then filter and the solid was sent for XRPD (before and after drying in oven) and DSC

The nature of data set [3]: Long-term stability at 25° C./60% RH (HPLC). The format is physicochemical. As to conditions: for Purity [%] (as measured by HPLC): 25° C./60% RH.
Data set [4] in a line: Stability under accelerated conditions 40° C./75% RH (HPLC). It counts as physicochemical. The settings on record: 40° C./75% RH, 6 months.
Data set [5] can be described thus: physchem. As to conditions: thermodynamic from solid.
Description: Approximate solubility of the starting di-tosylate salt (Form A) was measured by gravimetry method. 100 mg of the solid was suspended in 10 vol of various solvents and stirred at RT and 50° C. for 3 days. The mother liquid was then used to measure the solubility.
The conditions of data set [6]: mono-tosylate.
Data set [7] is described as follows: physchem. The settings on record: pH 1, simulated gastric fluid, thermodynamic from solid.

The term solubility denotes how much of the substance goes into solution per volume. In the case of `CCc1nc2ccc(Cl)cn2c1C(=O)NCc1ccc(N2CCC(c3ccc(OC(F)(F)F)cc3)CC2)cc1.Cc1ccc(S(=O)(=O)O)cc1.Cc1ccc(S(=O)(=O)O)cc1` [Form A, 6-chloro-2-ethyl-N-(4-(4-(4-(trifluoromethoxy)phenyl)piperidine-1-yl)benzyl)imidazo[1,2-a]pyridine-3-carboxamide ditosylate], in “DVS water absorption”, the “water absorption (DVS)” value was “around 0.35%”. Moreover, in data set [1], the “crystalline form after exposure to 100% RH” value is reported as “maintains its crystalline form; also recorded: no change to crystalline”. Moreover, the relative polymorph stability entry in data set [2] is given as “more stable than Form C”. The long-term storage stability result in [3] (25° C. and 60% RH for up to 60 months, listed as Q203-ditosylate form A, ditosylate) was “remains stable”. Further, the “Purity [%] (as measured by HPLC)” value in [3] (0 months), in data set [3] (6 months), in data set [3] (12 months), in data set [3] (24 months), in data set [3] (36 months) and in data set [3] (48 months) was above 98% in each case. Besides, the “Purity [%] (as measured by HPLC)” value in [3] (60 months) was above 98%. Further, the “purity (HPLC)” value in [4] is above 98%. The Approximate solubility result is recorded as “nil” (Acetone, 50° C.); “nil” (Acetone, RT); “nil” (Acetonitrile, 50° C.); “nil” (Acetonitrile, RT); “nil” (Dichloromethane (DCM), 50° C.); “nil” (Dichloromethane (DCM), RT). Besides, the Approximate solubility result is, setting by setting: (EA, 50° C.) “nil”; (EA, RT) “nil”; (IPA, RT) “nil”; (IPAC, 50° C.) “nil”; (IPAC, RT) “nil”; (MA, 50° C.) “nil”. Moreover, the Approximate solubility result by setting is: (MA, RT) “nil”; (Methul Isobutyl Ketone (MIBK), RT) “nil”; (Methyl Ethyl Ketone (MEK), 50° C.) “nil”; (Methyl Ethyl Ketone (MEK), RT) “nil”; (Methyl tert-Butyl Ether (TBME), 50° C.) “nil”; (Methyl tert-Butyl Ether (TBME), RT) “nil”. The Approximate solubility result is, setting by setting: (THF, 50° C.) “nil”; (THF, RT) “nil”; (Water, RT) “nil”. Moreover, the solubility at 3 days in the data set “physchem [5]” (IPA, 50 °C, organic solvent or mixture) was determined as 3000 µg/mL; in the data set “physchem [5]” (ethanol (EtOH), 50 °C, organic solvent or mixture), 7000 µg/mL; in “physchem [5]” (ethanol (EtOH), organic solvent or mixture), 1000 µg/mL; in “physchem [5]” (methanol (MeOH), 50 °C, organic solvent or mixture), 275000 µg/mL; in the data set “physchem [5]” (methanol (MeOH), organic solvent or mixture), 126000 µg/mL; in “physchem [5]” (methyl isobutyl ketone (MIBK), 50 °C, organic solvent or mixture), 2000 µg/mL. Also, the solubility at 3 days in “physchem [5]” (toluene, 50 °C, organic solvent or mixture) was 3000 µg/mL; in “physchem [5]” (toluene, organic solvent or mixture), 1000 µg/mL; in the data set “physchem [5]” (water, 50 °C), 3000 µg/mL.
As to `CCc1nc2ccc(Cl)cn2c1C(=O)NCc1ccc(N2CCC(c3ccc(OC(F)(F)F)cc3)CC2)cc1.Cc1ccc(S(=O)(=O)O)cc1` [pTSA salt, 6-chloro-2-ethyl-N-(4-(4-(4-(trifluoromethoxy)phenyl)piperidine-1-yl)benzyl)imidazo[1,2-a]pyridine-3-carboxamide mono-tosylate], the “solid form after slurrying in buffer (XRPD)” value in [6] (pH 1 buffer, listed as pTSA) is “remained the same pattern”; in data set [6] (pH 1 buffer), “remained stable”; in [6] (pH 4.5 and above), “converted to freebase (type 28)”. The molecule further showed a solubility in “physchem [7]” of around 330 µg/mL.
